# From US20110166112A1, “METHOD FOR STIMULATING PLATELET PRODUCTION” (Eisai, Inc., priority 2009, published 2011)
# Values joined by “and” are separate entries in the source; they are usually repeats but may differ in a detail not shown here. Equal values may be shown once.
# System: subjects with chronic idiopathic thrombocytopenic purpura (ITP)
# Assay: Phase 2 double-blind placebo-controlled dose-ranging 28-day study of E5501 tablets: platelet count response (responder rate)
# Format: in vivo, human
# Conditions: for subjects with sustained platelet increases that met the criteria for positive response: 28 days
# Experimental: This was a phase 2, multi-center, double-blind, randomized, placebo-controlled, dose-ranging, parallel group study of E5501 tablets, used in the treatment of subjects with chronic idiopathic thrombocytopenic purpura (ITP) refractory to or relapsed after at least one prior ITP therapy. Subjects who met all entry criteria were randomly assigned in a 3:3:3:3:1 ratio to one of the following five treatment groups dosed daily for 28 days: 1) E5501 2.5 mg; 2) E5501 5 mg; 3) E5501 10 mg; 4) E5501 20 mg; or 5) placebo (PBO). Each E5501 dosing group consisted of 15 subjects while the PBO group consisted of 5 subjects. All study subjects were evaluated weekly (days 7, 14, 21 and 28) for safety and efficacy while receiving study treatment, with a final assessment for safety and effectiveness performed 4 weeks after the last study dose (day 56) unless the subject entered the follow-on study. Platelet counts were also measured on day 3 and day 5.
# The primary objective of this study was to assess platelet count response to E5501 on day 28. The response rate was defined as the proportion of subjects who were not on steroids with a screening visit B platelet count <30,000/mm^3 and who achieved a platelet count ≧50,000/mm^3, together with the proportion of subjects receiving steroids with a screening visit B platelet count ≧30,000/mm^3 but <50,000/mm^3 who achieved a platelet count ≧20,000/mm^3 above their screening visit B platelet count. Secondary objectives of the study included the evaluation of other markers of effectiveness, including changes in peripheral blood platelet count, the proportion of subjects who achieved a platelet count ≧50,000/mm^3 and ≧100,000/mm^3, and the proportion of subjects who achieved a doubling of their platelet count at screening visit B and the assessment of the safety and tolerability of E5501.
# Primary efficacy endpoint. The primary endpoint in this study was E5501 responder rate on day 28. A responder is defined as a subject with screening visit B platelet count <30,000/mm^3 who achieves a platelet count ≧50,000/mm^3 or a subject receiving steroids with a screening visit B platelet count ≧30,000/mm^3 but <50,000/mm^3 who achieves a platelet count ≧20,000/mm^3 above their screening visit B platelet count.
# The secondary endpoints included changes from screening visit B in peripheral blood platelet counts over time; the proportion of subjects who achieved a platelet count of ≧50,000/mm^3 or ≧100,000/mm^3 on day 28 and the proportion of subjects whose platelet count doubled compared to their platelet count at Screening Visit B.
# The populations of interest were defined as follows: • The randomized population included all subjects who were randomized into the study. • The safety population included all randomized subjects who receive at least one dose of study drug and have at least one safety assessment. • The pharmacokinetic (PK) population included all subjects who provided blood sample for analysis of E5501. A subject was included in this population if the subject had at least one blood draw for PK assessment. • The full analysis set (FAS) included all subjects who provided adequate data to derive at least one efficacy assessment. […] The day 28 visit window was defined to be from day 25, to last dose day+1, inclusively; • Other major protocol violations that impacted the platelet endpoint evaluation. Results from Planned Analyses
# Primary Efficacy Endpoint. The analysis of efficacy was performed both on the FAS population and the PP population at day 28 visit with LOCF and observed case (OC) approaches. The primary analysis population was the FAS. Fisher's exact test was used to examine the difference of response rates among each treatment pair. All p-values are nominal without adjustment for multiplicity.
# Secondary Efficacy Endpoint. Analyses for secondary efficacy endpoints were performed by treatment group and by analysis visit using both LOCF and OC methods. […]
# [1] = Day 3, FAS, Observed Case, 2.5 mg
# [2] = Day 3, FAS, Observed Case, 5 mg
# [3] = Day 3, FAS, Observed Case, 10 mg
# [4] = Day 3, FAS, Observed Case, 20 mg
# [5] = Day 3, FAS, Observed Case, Total E5501
# [6] = Day 5, FAS, Observed Case, 2.5 mg
# [7] = Day 5, FAS, Observed Case, 5 mg
# [8] = Day 5, FAS, Observed Case, 10 mg
# [9] = Day 5, FAS, Observed Case, 20 mg
# [10] = Day 5, FAS, Observed Case, Total E5501
# [11] = Day 28, Baseline Platelet Cnt. >15K/mm^3, 2.5 mg
# [12] = Day 28, Baseline Platelet Cnt. >15K/mm^3, 5 mg
# [13] = Day 28, Baseline Platelet Cnt. >15K/mm^3, 10 mg
# [14] = Day 28, Baseline Platelet Cnt. >15K/mm^3, 20 mg
# [15] = Day 28, Baseline Platelet Cnt. >15K/mm^3, Total E5501
# [16] = Day 28, Baseline Platelet Cnt. ≦15K/mm^3, 2.5 mg
# [17] = Day 28, Baseline Platelet Cnt. ≦15K/mm^3, 5 mg
# [18] = Day 28, Baseline Platelet Cnt. ≦15K/mm^3, 10 mg
# [19] = Day 28, Baseline Platelet Cnt. ≦15K/mm^3, 20 mg
# [20] = Day 28, Baseline Platelet Cnt. ≦15K/mm^3, Total E5501
# [21] = Day 28, Full Analysis Population, LOCF, 2.5 mg
# [22] = Day 28, Full Analysis Population, LOCF, 5 mg
# [23] = Day 28, Full Analysis Population, LOCF, 10 mg
# [24] = Day 28, Full Analysis Population, LOCF, 20 mg
# [25] = Day 28, Full Analysis Population, LOCF, Total E5501
# [26] = Day 28, No Previous History of Splenectomy, 2.5 mg
# [27] = Day 28, No Previous History of Splenectomy, 5 mg
smiles,measurement,setting,value
"O=C(Nc1nc(-c2cc(Cl)cs2)c(N2CCN(C3CCCCC3)CC2)s1)c1cnc(N2CCC(C(=O)O)CC2)c(Cl)c1 [E5501, 1-(3-chloro-5-{[4-(4-chlorothiophen-2-yl)-5-(4-cyclohexylpiperazin-1-yl)thiazol-2-yl]carbamoyl}pyridine-2-yl)piperidine-4-carboxylic acid]",subjects refractory to splenectomy who responded,20 mg,66.7%
same,reduction in the response rate from day 7 to 28 days,20 mg dose group,about 15%
same,platelet counts from baseline (FIG. 1),"28 day study period, 2.5-20 mg",markedly increased platelet counts from baseline
same,subjects with sustained platelet increases that met the criteria for positive response,5 mg,28.6%
same,subjects with sustained platelet increases that met the criteria for positive response,10 mg,41.7%
same,subjects with sustained platelet increases that met the criteria for positive response,20 mg,76.9% and ~80%
same,"Responder, No",[1],4 (100.0) n (%)
same,"Responder, Yes",[1],0 n (%)
same,"Responder, No",[2],3 (100.0) n (%)
same,"Responder, Yes",[2],0 n (%)
same,"Responder, No",[3],2 (100.0) n (%)
same,"Responder, Yes",[3],0 n (%)
same,"Responder, No",[4],3 (75.0) n (%)
same,"Responder, Yes",[4],1 (25.0) n (%)
same,"Responder, No",[5],12 (92.3) n (%)
same,"Responder, Yes",[5],1 (7.7) n (%)
same,"Responder, No",[6],4 (100.0) n (%)
same,"Responder, Yes",[6],0 n (%)
same,"Responder, No",[7],2 (33.3) n (%)
same,"Responder, Yes",[7],4 (66.7) n (%)
same,"Responder, No",[8],3 (75.0) n (%)
same,"Responder, Yes",[8],1 (25.0) n (%)
same,"Responder, No",[9],4 (80.0) n (%)
same,"Responder, Yes",[9],1 (20.0) n (%)
same,"Responder, No",[10],13 (68.4) n (%)
same,"Responder, Yes",[10],6 (31.6) n (%)
same,Nonresponder,"Day 7, FAS, LOCF, 2.5 mg",14 (93.3) n (%)
same,Responder,"Day 7, FAS, LOCF, 2.5 mg",1 (6.7) n (%)
same,Nonresponder,"Day 7, FAS, LOCF, 5 mg",5 (33.3) n (%)
same,Responder,"Day 7, FAS, LOCF, 5 mg",10 (66.7) n (%)
same,Nonresponder,"Day 7, FAS, LOCF, 10 mg",5 (35.7) n (%)
same,Responder,"Day 7, FAS, LOCF, 10 mg",9 (64.3) n (%)
same,Nonresponder,"Day 7, FAS, LOCF, 20 mg",1 (6.7) n (%)
same,Responder,"Day 7, FAS, LOCF, 20 mg",14 (93.3) n (%)
same,Nonresponder,"Day 7, FAS, LOCF, Total E5501",25 (42.4) n (%)
same,Responder,"Day 7, FAS, LOCF, Total E5501",34 (57.6) n (%)
same,Nonresponder,"Day 14, FAS, LOCF, 2.5 mg",12 (80.0) n (%)
same,Responder,"Day 14, FAS, LOCF, 2.5 mg",3 (20.0) n (%)
same,Nonresponder,"Day 14, FAS, LOCF, 5 mg",6 (40.0) n (%)
same,Responder,"Day 14, FAS, LOCF, 5 mg",9 (60.0) n (%)
same,Nonresponder,"Day 14, FAS, LOCF, 10 mg",3 (21.4) n (%)
same,Responder,"Day 14, FAS, LOCF, 10 mg",11 (78.6) n (%)
same,Nonresponder,"Day 14, FAS, LOCF, 20 mg",1 (6.7) n (%)
same,Responder,"Day 14, FAS, LOCF, 20 mg",14 (93.3) n (%)
same,Nonresponder,"Day 14, FAS, LOCF, Total E5501",22 (37.3) n (%)
same,Responder,"Day 14, FAS, LOCF, Total E5501",37 (62.7) n (%)
same,Nonresponder,"Day 21, FAS, LOCF, 2.5 mg",13 (86.7) n (%)
same,Responder,"Day 21, FAS, LOCF, 2.5 mg",2 (13.3) n (%)
same,Nonresponder,"Day 21, FAS, LOCF, 5 mg",6 (40.0) n (%)
same,Responder,"Day 21, FAS, LOCF, 5 mg",9 (60.0) n (%)
same,Nonresponder,"Day 21, FAS, LOCF, 10 mg",7 (50.0) n (%)
same,Responder,"Day 21, FAS, LOCF, 10 mg",7 (50.0) n (%)
same,Nonresponder,"Day 21, FAS, LOCF, 20 mg",2 (13.3) n (%)
same,Responder,"Day 21, FAS, LOCF, 20 mg",13 (86.7) n (%)
same,Nonresponder,"Day 21, FAS, LOCF, Total E5501",28 (47.5) n (%)
same,Responder,"Day 21, FAS, LOCF, Total E5501",31 (52.5) n (%)
same,"Responder, No",[11],8 (80.0) n (%)
same,"Responder, Yes",[11],2 (20.0) n (%)
same,"Responder, No",[12],6 (46.2) n (%)
same,"Responder, Yes",[12],7 (53.8) n (%)
same,"Responder, No",[13],4 (44.4) n (%)
same,"Responder, Yes",[13],5 (55.6) n (%)
same,"Responder, No",[14],2 (18.2) n (%)
same,"Responder, Yes",[14],9 (81.8) n (%)
same,"Responder, No",[15],20 (46.5) n (%)
same,"Responder, Yes",[15],23 (53.5) n (%)
same,"Responder, No",[16],5 (100.0) n (%)
same,"Responder, Yes",[16],0 n (%)
same,"Responder, No",[17],1 (50.0) n (%)
same,"Responder, Yes",[17],1 (50.0) n (%)
same,"Responder, No",[18],3 (60.0) n (%)
same,"Responder, Yes",[18],2 (40.0) n (%)
same,"Responder, No",[19],1 (25.0) n (%)
same,"Responder, Yes",[19],3 (75.0) n (%)
same,"Responder, No",[20],10 (62.5) n (%)
same,"Responder, Yes",[20],6 (37.5) n (%)
same,"Responder, No",[21],13 (86.7) n (%)
same,"Responder, Yes",[21],2 (13.3) n (%)
same,"Responder, No",[22],7 (46.7) n (%)
same,"Responder, Yes",[22],8 (53.3) n (%)
same,"Responder, No",[23],7 (50.0) n (%)
same,"Responder, Yes",[23],7 (50.0) n (%)
same,"Responder, No",[24],3 (20.0) n (%)
same,"Responder, Yes",[24],12 (80.0) n (%)
same,"Responder, No",[25],30 (50.8) n (%)
same,"Responder, Yes",[25],29 (49.2) n (%)
same,"Responder, No",[26],9 (90.0) n (%)
same,"Responder, Yes",[26],1 (10.0) n (%)
same,"Responder, No",[27],5 (45.5) n (%)
same,"Responder, Yes",[27],6 (54.5) n (%)
same,"Responder, No","Day 28, No Previous History of Splenectomy, 10 mg",5 (45.5) n (%)
